Data published in article PMC10712727, “Safety, Tolerability, and Pharmacokinetics of Senaparib, a Novel PARP1/2 Inhibitor, in Chinese Patients With Advanced Solid Tumors: A Phase I Trial” (The Oncologist, 2023).

Tested on: patients with advanced solid tumors
Experiment: Safety: treatment-emergent and senaparib-related adverse events graded per NCI CTCAE v4.03
Assay type: in vivo
Conditions: TEAE
Protocol: This phase I, open-label, multicenter, dose-escalation, and dose-expansion study was conducted at three national clinical institutions in China. […] At baseline, all patients enrolled in the dose-escalation phase had to have at least one evaluable lesion, and those in the dose-expansion period had to have at least one measurable lesion, according to Response Evaluation Criteria in Solid Tumors version 1.1 (RECIST v1.1).[16] Entry to the dose-expansion cohort required the presence of a BRCA mutation, with the exception of patients with ovarian carcinoma, fallopian tube carcinoma, and primary peritoneal carcinoma. Full study eligibility criteria are provided in Supplementary Table S1.
Dose escalation was conducted using a modified Fibonacci 3 + 3 method (Supplementary Fig. S1).[17] Patients were administered oral senaparib from a planned starting dose of 2 mg once daily (QD), with preliminary dose escalation to 120 mg via nine dose groups, in order of their entry into the study. At a given dose level, each patient received a single dose of senaparib followed by a 7-day washout period. They then entered a continuous dosing period to confirm the safety and PK profile, in which they received senaparib QD from day 1 to day 21 of each 3-week cycle. Progression to the next higher dose required approval from the Data Safety Monitoring Committee (DSMC) upon review of the safety and PK data of the previous dose. A 50-mg twice-daily (BID) dosing group was added (planned enrollment, n = 6 patients) based on a DSMC review of the safety, PK, and efficacy analysis of the completed QD dose groups in the phase I clinical trial of senaparib dose escalation in Australia (NCT03507543), which commenced prior to the start of this trial.
The dose-expansion period included 3 populations: dose groups in which at least one patient achieved complete response (CR) or partial response (PR) per RECIST v1.1[16] and 1 dose group higher (evaluated for safety), as well as the dose group at the maximum tolerated dose (MTD)/recommended phase II dose (RP2D). Each of these groups included those patients in the respective dose-escalation group plus a planned additional 10 patients (approximately 20 patients in the MTD/RP2D group) with BRCA^mut+ solid tumors (ovarian, breast, or prostate cancer were preferred, and ovarian cancer could be BRCA wild type). Patients received senaparib monotherapy orally QD or BID (50-mg dose only) over each 3-week cycle until disease progression or unacceptable toxicity.
DLTs were predefined toxicities (Supplementary Table S2) recorded over the 7 days following the single-dose administration of senaparib and during the first treatment cycle (day 1-day 21) for each dose group in the dose-escalation period only. The MTD was defined as the maximum dose at which ≤1/6 patients experienced a DLT. Senaparib PK parameters were derived from blood samples collected from patients after the single administration, and at regular intervals during the first cycle of the dose-escalation and dose-expansion periods. Plasma concentrations of senaparib were determined using high-performance liquid chromatography-tandem mass spectrometry. Tumor response was assessed every 6 weeks per RECIST v1.1,[16] recording objective response rate (ORR), disease control rate (DCR), duration of response (DOR), and progression-free survival (PFS) by dose level for all patients and for those harboring BRCA^mut+ tumors.

## O=C(c1cc(Cn2c(=O)[nH]c(=O)c3c(F)cccc32)ccc1F)N1CCN(c2ncccn2)CC1 [Senaparib]
60 mg QD n = 5
  Asthenia, Gr≥3: 0 n (%)
  Blood bilirubin increased, All: 0 n (%)
  Blood bilirubin increased, Gr≥3: 0 n (%)
  Blood creatinine increased, All: 1 (20.0) n (%)
  Blood creatinine increased, Gr≥3: 0 n (%)
  Hypokalemia, All: 1 (20.0) n (%)
  Hypokalemia, Gr≥3: 0 n (%)
  Hyponatremia, All: 1 (20.0) n (%)
  Hyponatremia, Gr≥3: 0 n (%)
  Nausea, All: 1 (20.0) n (%)
  Nausea, Gr≥3: 0 n (%)
  Neutrophil count decreased, All: 1 (20.0) n (%)
  Neutrophil count decreased, Gr≥3: 0 n (%)
  Pain in extremity, All: 0 n (%)
  Pain in extremity, Gr≥3: 0 n (%)
  Platelet count decreased, All: 2 (40.0) n (%)
  Platelet count decreased, Gr≥3: 0 n (%)
  Protein in urine, All: 1 (20.0) n (%)
  Protein in urine, Gr≥3: 0 n (%)
  Vomiting, All: 1 (20.0) n (%)
  Vomiting, Gr≥3: 1 (20.0) n (%)
  WBC decreased, All: 2 (40.0) n (%)
  WBC decreased, Gr≥3: 0 n (%)
80 mg QD n = 9
  ALT increased, All: 1 (11.1) n (%)
  ALT increased, Gr≥3: 0 n (%)
  AST increased, All: 2 (22.2) n (%)
  AST increased, Gr≥3: 0 n (%)
  Abdominal distension, All: 3 (33.3) n (%)
  Abdominal distension, Gr≥3: 0 n (%)
  Anemia (incl. hemoglobin decreased), All: 7 (77.8) n (%)
  Anemia (incl. hemoglobin decreased), Gr≥3: 3 (33.3) n (%)
  Appetite decreased, All: 3 (33.3) n (%)
  Appetite decreased, Gr≥3: 0 n (%)
  Asthenia, All: 2 (22.2) n (%)
  Asthenia, Gr≥3: 0 n (%)
  Blood bilirubin increased, All: 2 (22.2) n (%)
  Blood bilirubin increased, Gr≥3: 0 n (%)
  Blood creatinine increased, All: 2 (22.2) n (%)
  Blood creatinine increased, Gr≥3: 0 n (%)
  Hypokalemia, All: 3 (33.3) n (%)
  Hypokalemia, Gr≥3: 0 n (%)
  Hyponatremia, All: 1 (11.1) n (%)
  Hyponatremia, Gr≥3: 0 n (%)
  Nausea, All: 4 (44.4) n (%)
  Nausea, Gr≥3: 0 n (%)
  Neutrophil count decreased, All: 4 (44.4) n (%)
  Neutrophil count decreased, Gr≥3: 1 (11.1) n (%)
  Pain in extremity, All: 2 (22.2) n (%)
  Pain in extremity, Gr≥3: 0 n (%)
  Platelet count decreased, All: 4 (44.4) n (%)
  Platelet count decreased, Gr≥3: 2 (22.2) n (%)
  Protein in urine, All: 0 n (%)
  Protein in urine, Gr≥3: 0 n (%)
  Vomiting, All: 3 (33.3) n (%)
  Vomiting, Gr≥3: 1 (11.1) n (%)
  WBC decreased, All: 5 (55.6) n (%)
  WBC decreased, Gr≥3: 1 (11.1) n (%)
100 mg QD n = 20
  ALT increased, All: 5 (25.0) n (%)
  ALT increased, Gr≥3: 0 n (%)
  AST increased, All: 4 (20.0) n (%)
  AST increased, Gr≥3: 1 (5.0) n (%)
  Abdominal distension, All: 0 n (%)
  Abdominal distension, Gr≥3: 0 n (%)
  Anemia (incl. hemoglobin decreased), All: 11 (55.0) n (%)
  Anemia (incl. hemoglobin decreased), Gr≥3: 4 (20.0) n (%)
  Appetite decreased, All: 5 (25.0) n (%)
  Appetite decreased, Gr≥3: 0 n (%)
  Asthenia, All: 5 (25.0) n (%)
  Asthenia, Gr≥3: 0 n (%)
  Blood bilirubin increased, All: 3 (15.0) n (%)
  Blood bilirubin increased, Gr≥3: 0 n (%)
  Blood creatinine increased, All: 2 (10.0) n (%)
  Blood creatinine increased, Gr≥3: 0 n (%)
  Hypokalemia, All: 0 n (%)
  Hypokalemia, Gr≥3: 0 n (%)
  Hyponatremia, All: 2 (10.0) n (%)
  Hyponatremia, Gr≥3: 0 n (%)
  Nausea, All: 4 (20.0) n (%)
  Nausea, Gr≥3: 0 n (%)
  Neutrophil count decreased, All: 5 (25.0) n (%)
  Neutrophil count decreased, Gr≥3: 2 (10.0) n (%)
  Pain in extremity, All: 2 (10.0) n (%)
  Pain in extremity, Gr≥3: 0 n (%)
  Platelet count decreased, All: 6 (30.0) n (%)
  Platelet count decreased, Gr≥3: 1 (5.0) n (%)
  Protein in urine, All: 2 (10.0) n (%)
  Protein in urine, Gr≥3: 0 n (%)
  Vomiting, All: 5 (25.0) n (%)
  Vomiting, Gr≥3: 0 n (%)
  WBC decreased, All: 9 (45.0) n (%)
  WBC decreased, Gr≥3: 1 (5.0) n (%)
120 mg QD n = 4
  ALT increased, All: 2 (50.0) n (%)
  ALT increased, Gr≥3: 1 (25.0) n (%)
  AST increased, All: 2 (50.0) n (%)
  AST increased, Gr≥3: 0 n (%)
  Abdominal distension, All: 0 n (%)
  Abdominal distension, Gr≥3: 0 n (%)
  Anemia (incl. hemoglobin decreased), All: 3 (75.0) n (%)
  Anemia (incl. hemoglobin decreased), Gr≥3: 1 (25.0) n (%)
  Appetite decreased, All: 1 (25.0) n (%)
  Appetite decreased, Gr≥3: 0 n (%)
  Asthenia, All: 2 (50.0) n (%)
  Asthenia, Gr≥3: 0 n (%)
  Blood bilirubin increased, All: 2 (50.0) n (%)
  Blood bilirubin increased, Gr≥3: 1 (25.0) n (%)
  Blood creatinine increased, All: 1 (25.0) n (%)
  Blood creatinine increased, Gr≥3: 0 n (%)
  Hypokalemia, All: 0 n (%)
  Hypokalemia, Gr≥3: 0 n (%)
  Hyponatremia, All: 0 n (%)
  Hyponatremia, Gr≥3: 0 n (%)
  Nausea, All: 1 (25.0) n (%)
  Nausea, Gr≥3: 0 n (%)
  Neutrophil count decreased, All: 1 (25.0) n (%)
  Neutrophil count decreased, Gr≥3: 0 n (%)
  Pain in extremity, All: 1 (25.0) n (%)
